Test [1] in a line: Inhibitory activity of compound was tested against peroxinitrite in collagen type I with concentration 50 uM of each sample was treated with 1.0 mM peroxynitrite.
A short description of test [2]: Inhibitory activity of compound was tested against peroxinitrite in collagen type I at concentration 100 uM of each sample was treated with 1.0 mM peroxynitrite.
Test [3] in a line: Inhibitory activity of compound was tested against peroxinitrite of collagen type I with concentration 50 uM of each sample was treated with 1.0 mM peroxynitrite.

Each structure is given as a SMILES string.

As for `COc1cc(/C=C(C(=O)O)\C(=C/c2cc(OC)c(O)c(OC)c2)C(=O)O)cc(OC)c1O`, in test [1], the Activity came to 0.25.
Turning to `COc1cc(/C=C/C(=O)O)cc(OC)c1O`, the Activity in test [2] stood at 0.3; in test [1] it was 1.
For `COc1cc([C@H]2c3c(cc(OC)c(O)c3OC)C=C(C(=O)O)[C@@H]2C(=O)O)cc(OC)c1O`, in test [3], the Activity was 0.7.

For the origin of these results see ChEMBL document CHEMBL1135253, “Formation of thomasidioic acid from dehydrosinapinic acid dilactone under neutral conditions, and a remaining inhibitory activity against peroxynitrite-mediated protein nitration” (Bioorg Med Chem Lett, 2002).
